#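 Step 1: Grow cells in 96-well plates. Step 2: Expose to compound for 48 hours at 5 concentrations. Step 3: Interpolate endpoints linearly; if unreached, use highest concentration. TGI: total growth inhibition.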
# Key:
# Experiment in all cases: NCI-60 cell line screen, 48 h
# BT-549 breast = tested on: BT-549 breast
# OVCAR-4 ovarian = tested on: OVCAR-4 ovarian
# SNB-75 CNS = tested on: SNB-75 CNS
# CAKI-1 renal = tested on: CAKI-1 renal
# UACC-257 melanoma = tested on: UACC-257 melanoma
# MCF7 breast = tested on: MCF7 breast
# T-47D breast = tested on: T-47D breast
# MALME-3M melanoma = tested on: MALME-3M melanoma
# M14 melanoma = tested on: M14 melanoma
# SK-OV-3 ovarian = tested on: SK-OV-3 ovarian
# HOP-92 NSCLC = tested on: HOP-92 NSCLC
# MDA-MB-435 = tested on: MDA-MB-435
# OVCAR-5 ovarian = tested on: OVCAR-5 ovarian
# HT29 colon = tested on: HT29 colon
# SNB-19 CNS = tested on: SNB-19 CNS
# KM12 colon = tested on: KM12 colon
# PC-3 prostate = tested on: PC-3 prostate
# IGROV1 ovarian = tested on: IGROV1 ovarian
# SN12C renal = tested on: SN12C renal
# RPMI-8226 leukemia = tested on: RPMI-8226 leukemia
# NCI-H226 lung = tested on: NCI-H226 lung
# TK-10 renal = tested on: TK-10 renal
# MOLT-4 leukemia = tested on: MOLT-4 leukemia
# SK-MEL-28 melanoma = tested on: SK-MEL-28 melanoma
# A549 NSCLC = tested on: A549 NSCLC
# CCRF-CEM leukemia = tested on: CCRF-CEM leukemia
# NCI-H460 lung = tested on: NCI-H460 lung
# UO-31 renal = tested on: UO-31 renal
# DU-145 prostate = tested on: DU-145 prostate
# SF-539 CNS = tested on: SF-539 CNS
# LOX IMVI melanoma = tested on: LOX IMVI melanoma
# HOP-62 NSCLC = tested on: HOP-62 NSCLC
# SK-MEL-2 melanoma = tested on: SK-MEL-2 melanoma
# RXF 393 renal = tested on: RXF 393 renal
# SK-MEL-5 melanoma = tested on: SK-MEL-5 melanoma
# K-562 leukemia = tested on: K-562 leukemia
# HL-60(TB) leukemia = tested on: HL-60(TB) leukemia
# A498 renal = tested on: A498 renal
# NCI/ADR-RES ovarian = tested on: NCI/ADR-RES ovarian
# NCI-H522 lung = tested on: NCI-H522 lung
# U251 CNS = tested on: U251 CNS
# OVCAR-8 ovarian = tested on: OVCAR-8 ovarian
# 786-0 renal = tested on: 786-0 renal
# EKVX NSCLC = tested on: EKVX NSCLC
# OVCAR-3 ovarian = tested on: OVCAR-3 ovarian
# SF-295 CNS = tested on: SF-295 CNS
# HCT-15 colon = tested on: HCT-15 colon
# NCI-H23 lung = tested on: NCI-H23 lung
# MDA-N = tested on: MDA-N
# COLO 205 colon = tested on: COLO 205 colon
# HCT-116 colon = tested on: HCT-116 colon
# MDA-MB-231 breast = tested on: MDA-MB-231 breast
# ACHN renal = tested on: ACHN renal
# SW-620 colon = tested on: SW-620 colon
# HS 578T breast = tested on: HS 578T breast
# SF-268 CNS = tested on: SF-268 CNS
# SR leukemia = tested on: SR leukemia
# UACC-62 melanoma = tested on: UACC-62 melanoma
# HCC-2998 colon = tested on: HCC-2998 colon
smiles,measurement,setting,value
c1ccc(/N=N/Nc2ccc(-c3nc4ccccc4[nH]3)cc2)nc1,TGI,BT-549 breast,> 100 µM
same,TGI,OVCAR-4 ovarian,35.8 µM
same,TGI,SNB-75 CNS,40.5 µM
same,TGI,CAKI-1 renal,61.3 µM
same,TGI,UACC-257 melanoma,62.6 µM
same,TGI,MCF7 breast,23.4 µM
same,TGI,T-47D breast,26 µM
same,TGI,MALME-3M melanoma,29.2 µM
same,TGI,M14 melanoma,> 100 µM
same,TGI,SK-OV-3 ovarian,27.9 µM
same,TGI,HOP-92 NSCLC,40.5 µM
same,TGI,MDA-MB-435,45.7 µM
same,TGI,OVCAR-5 ovarian,84.1 µM
same,TGI,HT29 colon,45.2 µM
same,TGI,SNB-19 CNS,44 µM
same,TGI,KM12 colon,30.7 µM
same,TGI,PC-3 prostate,47.2 µM
same,TGI,IGROV1 ovarian,28 µM
same,TGI,SN12C renal,35.8 µM
same,TGI,RPMI-8226 leukemia,11.6 µM
same,TGI,NCI-H226 lung,65.4 µM
same,TGI,TK-10 renal,35.6 µM
same,TGI,MOLT-4 leukemia,25.4 µM
same,TGI,SK-MEL-28 melanoma,38.7 µM
same,TGI,A549 NSCLC,36.4 µM
same,TGI,CCRF-CEM leukemia,9.79 µM
same,TGI,NCI-H460 lung,31.6 µM
same,TGI,UO-31 renal,49.3 µM
same,TGI,DU-145 prostate,27.7 µM
same,TGI,SF-539 CNS,31.3 µM
same,TGI,LOX IMVI melanoma,43.7 µM
same,TGI,HOP-62 NSCLC,30.2 µM
same,TGI,SK-MEL-2 melanoma,62.5 µM
same,TGI,RXF 393 renal,32.5 µM
same,TGI,SK-MEL-5 melanoma,> 100 µM
same,TGI,K-562 leukemia,31.8 µM
same,TGI,HL-60(TB) leukemia,> 100 µM
same,TGI,A498 renal,> 100 µM
same,TGI,NCI/ADR-RES ovarian,> 100 µM
same,TGI,NCI-H522 lung,33.9 µM
same,TGI,U251 CNS,30.1 µM
same,TGI,OVCAR-8 ovarian,47.2 µM
same,TGI,786-0 renal,27.5 µM
same,TGI,EKVX NSCLC,52.8 µM
same,TGI,OVCAR-3 ovarian,28.2 µM
same,TGI,SF-295 CNS,35.9 µM
same,TGI,HCT-15 colon,69.9 µM
same,TGI,NCI-H23 lung,95.8 µM
same,TGI,MDA-N,34.7 µM
same,TGI,COLO 205 colon,> 100 µM
same,TGI,HCT-116 colon,19.7 µM
same,TGI,MDA-MB-231 breast,25.1 µM
same,TGI,ACHN renal,34.2 µM
same,TGI,SW-620 colon,71.5 µM
same,TGI,HS 578T breast,43 µM
CN(/N=C/C=N/N(C)C1=NCCCCN1)C1=NCCCCN1,TGI,BT-549 breast,> 100 µM
same,TGI,OVCAR-4 ovarian,> 100 µM
same,TGI,SNB-75 CNS,> 100 µM
same,TGI,CAKI-1 renal,> 100 µM
same,TGI,UACC-257 melanoma,> 100 µM
same,TGI,MCF7 breast,> 100 µM
same,TGI,T-47D breast,> 100 µM
same,TGI,MALME-3M melanoma,> 100 µM
same,TGI,M14 melanoma,> 100 µM
same,TGI,SK-OV-3 ovarian,> 100 µM
same,TGI,MDA-MB-435,> 100 µM
same,TGI,OVCAR-5 ovarian,> 100 µM
same,TGI,HT29 colon,> 100 µM
same,TGI,SNB-19 CNS,> 100 µM
same,TGI,SF-268 CNS,> 100 µM
same,TGI,PC-3 prostate,> 100 µM
same,TGI,IGROV1 ovarian,> 100 µM
same,TGI,SN12C renal,> 100 µM
same,TGI,NCI-H226 lung,> 100 µM
same,TGI,TK-10 renal,> 100 µM
same,TGI,MOLT-4 leukemia,> 100 µM
same,TGI,SK-MEL-28 melanoma,> 100 µM
same,TGI,A549 NSCLC,> 100 µM
same,TGI,CCRF-CEM leukemia,> 100 µM
same,TGI,NCI-H460 lung,> 100 µM
same,TGI,UO-31 renal,> 100 µM
same,TGI,SF-539 CNS,> 100 µM
same,TGI,LOX IMVI melanoma,> 100 µM
same,TGI,HOP-62 NSCLC,> 100 µM
same,TGI,RXF 393 renal,> 100 µM
same,TGI,SK-MEL-5 melanoma,> 100 µM
same,TGI,K-562 leukemia,> 100 µM
same,TGI,SR leukemia,> 100 µM
same,TGI,NCI/ADR-RES ovarian,> 100 µM
same,TGI,NCI-H522 lung,> 100 µM
same,TGI,UACC-62 melanoma,> 100 µM
same,TGI,U251 CNS,> 100 µM
same,TGI,OVCAR-8 ovarian,> 100 µM
same,TGI,786-0 renal,> 100 µM
same,TGI,EKVX NSCLC,> 100 µM
same,TGI,OVCAR-3 ovarian,> 100 µM
same,TGI,SF-295 CNS,> 100 µM
same,TGI,HCT-15 colon,> 100 µM
same,TGI,NCI-H23 lung,> 100 µM
same,TGI,MDA-N,> 100 µM
same,TGI,COLO 205 colon,> 100 µM
same,TGI,HCT-116 colon,> 100 µM
same,TGI,HCC-2998 colon,> 100 µM
same,TGI,MDA-MB-231 breast,> 100 µM
same,TGI,ACHN renal,> 100 µM
same,TGI,SW-620 colon,> 100 µM
same,TGI,HS 578T breast,> 100 µM

# From PubChem BioAssay (NCI)
